Results: PubChem BioAssay AID256 (DTP/NCI, 2004)
“And” between values parts separate entries of the source, which are not always exact repeats. Identical values can stand only once. Toxic doses and inconclusive results are not listed.

Test system: CD2F1 mice, L1210 leukemia ip, survival T/C
Assay: NCI In Vivo Anticancer Drug Screen. Data for tumor model L1210 Leukemia (intraperitoneal) in CD2F1 (CDF1) mice
Settings: higher = longer survival
Summary of the method: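 In this screen, transplantable tumors were grown in mice given either the compound or its vehicle. Results were expressed as the treated measurement relative to the control measurement.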

[1] = endpoint: mean survival time, dose: 100.0 mg/kg/injection, schedule: Q01DX009 (ip), vehicle: Klucel (hydroxypropylcellulose) (HPC)
[2] = endpoint: mean survival time, dose: 100.0 mg/kg/injection, schedule: Q04DX003 (ip), vehicle: saline with Tween-80
[3] = endpoint: mean survival time, dose: 200.0 mg/kg/injection, schedule: Q01DX009 (ip), vehicle: Klucel (hydroxypropylcellulose) (HPC)
[4] = endpoint: mean survival time, dose: 200.0 mg/kg/injection, schedule: Q04DX003 (ip), vehicle: saline with Tween-80
[5] = endpoint: mean survival time, dose: 400.0 mg/kg/injection, schedule: Q01DX009 (ip), vehicle: Klucel (hydroxypropylcellulose) (HPC)
[6] = endpoint: mean survival time, dose: 400.0 mg/kg/injection, schedule: Q04DX003 (ip), vehicle: saline with Tween-80
[7] = endpoint: mean survival time, dose: 50.0 mg/kg/injection, schedule: Q01DX009 (ip), vehicle: saline with Tween-80
[8] = endpoint: mean survival time, dose: 100.0 mg/kg/injection, schedule: Q01DX009 (ip), vehicle: saline with Tween-80
[9] = endpoint: mean survival time, dose: 200.0 mg/kg/injection, schedule: Q01DX009 (ip), vehicle: saline with Tween-80
[10] = endpoint: mean survival time, dose: 400.0 mg/kg/injection, schedule: Q01DX009 (ip), vehicle: saline with Tween-80
[11] = endpoint: mean survival time, dose: 75.0 mg/kg/injection, schedule: Q01DX001 (ip), vehicle: saline
[12] = endpoint: mean survival time, dose: 100.0 mg/kg/injection, schedule: Q01DX009 (ip), vehicle: saline
[13] = endpoint: mean survival time, dose: 100.0 mg/kg/injection, schedule: Q04DX003 (ip), vehicle: saline
[14] = endpoint: mean survival time, dose: 200.0 mg/kg/injection, schedule: Q04DX003 (ip), vehicle: saline

## O=C1CC2CC1C1C3CCC(CC3)C21 (stereo not given)
endpoint: mean survival time, dose: 3.13 mg/kg/injection, schedule: Q01DX009 (ip), vehicle: saline with Tween-80
  T/C: 86 % of control
endpoint: mean survival time, dose: 6.25 mg/kg/injection, schedule: Q01DX009 (ip), vehicle: saline with Tween-80
  T/C: 101 % of control
endpoint: mean survival time, dose: 12.5 mg/kg/injection, schedule: Q01DX009 (ip), vehicle: saline with Tween-80
  T/C: 90 % of control and 98 % of control

## c1ccc(-c2ncnc3c2Cc2ccccc2-3)cc1
endpoint: mean survival time, dose: 100.0 mg/kg/injection, schedule: Q01DX009 (ip), vehicle: saline sonified
  T/C: 94 % of control
endpoint: mean survival time, dose: 200.0 mg/kg/injection, schedule: Q01DX009 (ip), vehicle: saline sonified
  T/C: 100 % of control
endpoint: mean survival time, dose: 400.0 mg/kg/injection, schedule: Q01DX009 (ip), vehicle: saline sonified
  T/C: 98 % of control

## Cc1noc(N)c1N
endpoint: median survival time, dose: 12.5 mg/kg/injection, schedule: Q01DX009 (ip), vehicle: water
  T/C: 98 % of control
endpoint: median survival time, dose: 25.0 mg/kg/injection, schedule: Q01DX009 (ip), vehicle: water
  T/C: 100 % of control
endpoint: median survival time, dose: 50.0 mg/kg/injection, schedule: Q01DX009 (ip), vehicle: water
  T/C: 100 % of control
endpoint: median survival time, dose: 100.0 mg/kg/injection, schedule: Q01DX009 (ip), vehicle: water
  T/C: 113 % of control and 104 % of control and 110 % of control
endpoint: median survival time, dose: 150.0 mg/kg/injection, schedule: Q01DX009 (ip), vehicle: water
  T/C: 109 % of control

## CCOP(=S)(OCC)S/C(C(=O)NC)=C(/C)O
endpoint: mean survival time, dose: 100.0 mg/kg/injection, schedule: Q04DX003 (sc), vehicle: Klucel + Tween-80
  T/C: 96 % of control
endpoint: mean survival time, dose: 200.0 mg/kg/injection, schedule: Q04DX003 (sc), vehicle: Klucel + Tween-80
  T/C: 100 % of control
endpoint: mean survival time, dose: 400.0 mg/kg/injection, schedule: Q04DX003 (sc), vehicle: Klucel + Tween-80
  T/C: 115 % of control
endpoint: mean survival time, dose: 600.0 mg/kg/injection, schedule: Q04DX003 (sc), vehicle: Klucel + Tween-80
  T/C: 96 % of control

## CCCCCCCCCCCCCCOc1ccc(C(=O)O)cc1
[1]
  T/C: 93 % of control
[2]
  T/C: 91 % of control
[3]
  T/C: 93 % of control
[4]
  T/C: 90 % of control
[5]
  T/C: 93 % of control
[6]
  T/C: 88 % of control

## O=C1C=C(NNc2ccccc2)CCC1
[7]
  T/C: 104 % of control
[8]
  T/C: 100 % of control

## Cc1c2ccccc2c(C)c2cnccc12
[8]
  T/C: 97 % of control
[9]
  T/C: 97 % of control
[10]
  T/C: 92 % of control

## CCC(C(=O)OCCNC1CCCCC1)c1ccccc1 (stereo not given)
[11]
  T/C: 110 % of control

## C/C(CC(C)C)=N\NC(=O)CNC(=O)c1ccccc1
[8]
  T/C: 90 % of control
[9]
  T/C: 92 % of control
[10]
  T/C: 96 % of control

## CCOc1ccc(-c2nnc(Nc3ccc(S(=O)(=O)N4CCCCC4)cc3)s2)cc1
endpoint: mean survival time, dose: 25.0 mg/kg/injection, schedule: Q01DX009 (ip), vehicle: saline with Tween-80
  T/C: 95 % of control
[7]
  T/C: 90 % of control
[8]
  T/C: 86 % of control

## CCN(CC)/C(N)=N\c1nc(C)c2cc(Cl)ccc2n1
endpoint: mean survival time, dose: 100.0 mg/kg/injection, schedule: Q01DX001 (ip), vehicle: saline
  T/C: 103 % of control

## [C-]#[O+].[C-]#[O+].[C-]#[O+].[C-]#[O+].[C-]#[O+].[Cr].c1ccc([PH+](c2ccccc2)c2ccccc2)cc1
[7]
  T/C: 100 % of control
[8]
  T/C: 91 % of control
[9]
  T/C: 93 % of control

## CC(=O)CC1CC2(CCC1=O)OCCO2 (stereo not given)
[8]
  T/C: 102 % of control
[2]
  T/C: 98 % of control
[9]
  T/C: 96 % of control
[4]
  T/C: 93 % of control
[10]
  T/C: 100 % of control
[6]
  T/C: 102 % of control

## CC1[N-]C(/C=N/O)NC(C)N1.CC1[N-]C(/C=N/O)NC(C)N1.[Br][Ni+2][Br] (stereo not given)
endpoint: mean survival time, dose: 5.0 mg/kg/injection, schedule: Q01DX001 (ip), vehicle: saline
  T/C: 105 % of control
endpoint: mean survival time, dose: 10.0 mg/kg/injection, schedule: Q01DX001 (ip), vehicle: saline
  T/C: 103 % of control
endpoint: mean survival time, dose: 20.0 mg/kg/injection, schedule: Q01DX001 (ip), vehicle: saline
  T/C: 105 % of control
endpoint: mean survival time, dose: 40.0 mg/kg/injection, schedule: Q01DX001 (ip), vehicle: saline
  T/C: 108 % of control
[11]
  T/C: 106 % of control
endpoint: mean survival time, dose: 80.0 mg/kg/injection, schedule: Q01DX001 (ip), vehicle: saline
  T/C: 105 % of control

## O=C(O)Cc1ccc(O)cc1
endpoint: mean survival time, dose: 100.0 mg/kg/injection, schedule: Q01DX001 (ip), vehicle: saline with Tween-80
  T/C: 101 % of control
endpoint: mean survival time, dose: 200.0 mg/kg/injection, schedule: Q01DX001 (ip), vehicle: saline with Tween-80
  T/C: 101 % of control
endpoint: mean survival time, dose: 400.0 mg/kg/injection, schedule: Q01DX001 (ip), vehicle: saline with Tween-80
  T/C: 108 % of control

## COc1ccc(SC2=CC(=O)c3ccccc3C2=O)cc1
endpoint: mean survival time, dose: 75.0 mg/kg/injection, schedule: Q01DX001 (ip), vehicle: other
  T/C: 97 % of control
endpoint: mean survival time, dose: 150.0 mg/kg/injection, schedule: Q01DX001 (ip), vehicle: other
  T/C: 95 % of control

## N#CCCN1CCOCC1
[12]
  T/C: 95 % of control
[13]
  T/C: 92 % of control
endpoint: mean survival time, dose: 200.0 mg/kg/injection, schedule: Q01DX009 (ip), vehicle: saline
  T/C: 93 % of control
[14]
  T/C: 103 % of control
endpoint: mean survival time, dose: 400.0 mg/kg/injection, schedule: Q01DX009 (ip), vehicle: saline
  T/C: 101 % of control
endpoint: mean survival time, dose: 400.0 mg/kg/injection, schedule: Q04DX003 (ip), vehicle: saline
  T/C: 103 % of control

## CC(N)C(=O)c1ccccc1 (stereo not given)
[13]
  T/C: 105 % of control
[14]
  T/C: 94 % of control

## CCCCN(CCCC)CCCN(CCCOS(C)(=O)=O)CCCOS(C)(=O)=O
endpoint: mean survival time, dose: 12.0 mg/kg/injection, schedule: Q01DX001 (ip), vehicle: saline
  T/C: 110 % of control
endpoint: mean survival time, dose: 12.5 mg/kg/injection, schedule: Q01DX009 (ip), vehicle: saline
  T/C: 121 % of control
endpoint: mean survival time, dose: 12.5 mg/kg/injection, schedule: Q04DX003 (ip), vehicle: saline
  T/C: 110 % of control
endpoint: mean survival time, dose: 25.0 mg/kg/injection, schedule: Q01DX001 (ip), vehicle: saline
  T/C: 114 % of control
endpoint: mean survival time, dose: 25.0 mg/kg/injection, schedule: Q04DX003 (ip), vehicle: saline
  T/C: 117 % of control
endpoint: mean survival time, dose: 50.0 mg/kg/injection, schedule: Q01DX009 (ip), vehicle: saline
  T/C: 162 % of control
[12]
  T/C: 102 % of control
[13]
  T/C: 160 % of control
endpoint: mean survival time, dose: 200.0 mg/kg/injection, schedule: Q01DX001 (ip), vehicle: saline
  T/C: 90 % of control

## O=C1C(Cl)=C(c2ccccc2)C(=O)C(Cl)=C1c1ccccc1
endpoint: mean survival time, dose: 50.0 mg/kg/injection, schedule: Q04DX003 (ip), vehicle: saline with Tween-80
  T/C: 103 % of control
[2]
  T/C: 109 % of control
[4]
  T/C: 107 % of control

## COC(=O)c1nc(SC)n(C2OC(COC(=O)c3ccccc3)C(OC(=O)c3ccccc3)C2OC(=O)c2ccccc2)c1CC#N (stereo not given)
endpoint: median survival time, dose: 9.13 mg/kg/injection, schedule: Q01DX005 (ip), vehicle: saline with Tween-80
  T/C: 100 % of control
endpoint: median survival time, dose: 18.25 mg/kg/injection, schedule: Q01DX005 (ip), vehicle: saline with Tween-80
  T/C: 98 % of control
endpoint: median survival time, dose: 36.5 mg/kg/injection, schedule: Q01DX005 (ip), vehicle: saline with Tween-80
  T/C: 91 % of control
endpoint: median survival time, dose: 73.0 mg/kg/injection, schedule: Q01DX005 (ip), vehicle: saline with Tween-80
  T/C: 98 % of control
endpoint: median survival time, dose: 146.0 mg/kg/injection, schedule: Q01DX005 (ip), vehicle: saline with Tween-80
  T/C: 96 % of control

## CCCCCCCCCNP(=O)(OCc1ccccc1)N(CCCl)CCCl (stereo not given)
endpoint: mean survival time, dose: 25.0 mg/kg/injection, schedule: Q01DX001 (ip), vehicle: DMSO
  T/C: 94 % of control
endpoint: mean survival time, dose: 50.0 mg/kg/injection, schedule: Q01DX001 (ip), vehicle: DMSO
  T/C: 94 % of control
endpoint: mean survival time, dose: 100.0 mg/kg/injection, schedule: Q01DX001 (ip), vehicle: DMSO
  T/C: 95 % of control
endpoint: mean survival time, dose: 200.0 mg/kg/injection, schedule: Q01DX001 (ip), vehicle: DMSO
  T/C: 94 % of control
endpoint: mean survival time, dose: 400.0 mg/kg/injection, schedule: Q01DX001 (ip), vehicle: DMSO
  T/C: 91 % of control

## C[C@]12CCC(=O)C(O)=C1CC[C@@H]1[C@@H]2CC[C@]2(C)C(=O)CC[C@@H]12
endpoint: mean survival time, dose: 12.5 mg/kg/injection, schedule: Q01DX009 (ip), vehicle: Klucel (hydroxypropylcellulose) (HPC)
  T/C: 103 % of control
endpoint: mean survival time, dose: 25.0 mg/kg/injection, schedule: Q01DX009 (ip), vehicle: Klucel (hydroxypropylcellulose) (HPC)
  T/C: 97 % of control
endpoint: mean survival time, dose: 50.0 mg/kg/injection, schedule: Q01DX009 (ip), vehicle: Klucel (hydroxypropylcellulose) (HPC)
  T/C: 104 % of control
[1]
  T/C: 98 % of control
[3]
  T/C: 91 % of control
[5]
  T/C: 97 % of control
